Data reported in patent US9255103B2, “Substituted pyrazolo[1,5-a]pyrazines as mGluR5 receptor modulators” (Vanderbilt University, priority 2010, dated 2016).
Like-named read-outs stand apart in the source and are kept apart here.

Tests used:
human mGluR5a receptor = human mGluR5a receptor (Homo sapiens, UniProt P41594); experiment: Cell-based functional Ca2+ mobilization assay (FDSS), potentiation of glutamate EC20 response in H10H cell line; conditions: for Emax: percent of maximal glutamate response, human mGluR5 HEK cells; for EC50 / pEC50: HEK cells transfected with human mGluR5 (H10H), presence of glutamate EC20
Method: Human embryonic kidney (HEK) cells transfected with rat mGluR5 were plated in clear bottom assay plates for assay in a Functional Drug Screening System (FDSS). In the alternative assay, HEK cells transfected with human mGluR5 (H10H cell line) were plated for assay in the FDSS. […] The cells were loaded with a Ca^2+-sensitive fluorescent dye (e.g., Fluo-4), and the plates were washed and placed in the FDSS instrument. After establishment of a fluorescence baseline for twelve seconds, the compounds of the present invention were added to the cells, and the response in cells was measured. Alternatively, in various further aspects, after establishment of a fluorescence baseline for about three seconds, the compounds of the present invention were added to the cells, and the response in cells was measured. Five minutes later, an mGluR5 agonist (e.g., glutamate, 3,5-dihydroxyphenylglycine, or quisqualate) was added to the cells, and the response of the cells was measured.
The above described assay operated in two modes. In the first mode, a range of concentrations of the present compounds were added to cells, followed by a single fixed concentration of agonist. If a compound acted as a potentiator, an EC50 value for potentiation and a maximum extent of potentiation by the compound at this concentration of agonist was determined by non-linear curve fitting. In the second mode, several fixed concentrations of the present compounds were added to various wells on a plate, followed by a range of concentrations of agonist for each concentration of present compound; the EC50 values for the agonist at each concentration of compound were determined by non-linear curve fitting. A decrease in the EC50 value of the agonist with increasing concentrations of the present compounds (a leftward shift of the agonist concentration-response curve) is an indication of the degree of mGluR5 potentiation at a given concentration of the present compound. An increase in the EC50 value of the agonist with increasing concentrations of the present compounds (a rightward shift of the agonist concentration-response curve) is an indication of the degree of mGluR5 antagonism at a given concentration of the present compound. The second mode also indicates whether the present compounds also affect the maximum response to mGluR5 to agonists.
The mGluR5 activity was determined using the metabotropic glutamate receptor activity assays in human embryonic kidney cells as described herein, wherein the human embryonic kidney cells were transfected with human mGluR5. The compounds in Table 1 were synthesized with methods identical or analogous to those shown herein. The requisite starting materials were commercially available, described in the literature, or readily synthesized by one skilled in the art of organic synthesis.
Human mGluR5a cDNA in pCMV6-XL6 mammalian expression plasmid was purchased from OriGene Technologies, Inc. (catalogue number SC326357) and subcloned into pcDNA3.1(−). Human embryonic kidney (HEK)293A cells were then transfected with human mGluR5a pcDNA3.1(−) using LipofectAmine2000 (Invitrogen) and monoclones were selected and tested for functional response using a Ca^2+ mobilization assay. Monoclones were named for the species (“H” for human) plus the location on the plate (e.g. “10H”).
HEK cells transfected with the human mGluR5a receptor (H10H cell line) were plated at 15,000 cells/well in clear-bottomed poly-D-lysine-coated assay plates (BD Falcon) in glutamate-glutamine-free growth medium and incubated overnight at 37° C. and 5% CO2. The following day, the growth medium was removed and the cells were washed with assay buffer containing 1× Hank's balanced salt solution (Invitrogen, Carlsbad, Calif.), 20 mM HEPES, 2.5 mM probenecid, pH 7.4 and left with 20 μL of this reagent.

[1] = HEK293, maximum average response at a single concentration, read-out: Emax
[2] = maximum average response at a single concentration

Sequence of human mGluR5a receptor (P41594 21-1180 isoform P41594-2 limits assumed): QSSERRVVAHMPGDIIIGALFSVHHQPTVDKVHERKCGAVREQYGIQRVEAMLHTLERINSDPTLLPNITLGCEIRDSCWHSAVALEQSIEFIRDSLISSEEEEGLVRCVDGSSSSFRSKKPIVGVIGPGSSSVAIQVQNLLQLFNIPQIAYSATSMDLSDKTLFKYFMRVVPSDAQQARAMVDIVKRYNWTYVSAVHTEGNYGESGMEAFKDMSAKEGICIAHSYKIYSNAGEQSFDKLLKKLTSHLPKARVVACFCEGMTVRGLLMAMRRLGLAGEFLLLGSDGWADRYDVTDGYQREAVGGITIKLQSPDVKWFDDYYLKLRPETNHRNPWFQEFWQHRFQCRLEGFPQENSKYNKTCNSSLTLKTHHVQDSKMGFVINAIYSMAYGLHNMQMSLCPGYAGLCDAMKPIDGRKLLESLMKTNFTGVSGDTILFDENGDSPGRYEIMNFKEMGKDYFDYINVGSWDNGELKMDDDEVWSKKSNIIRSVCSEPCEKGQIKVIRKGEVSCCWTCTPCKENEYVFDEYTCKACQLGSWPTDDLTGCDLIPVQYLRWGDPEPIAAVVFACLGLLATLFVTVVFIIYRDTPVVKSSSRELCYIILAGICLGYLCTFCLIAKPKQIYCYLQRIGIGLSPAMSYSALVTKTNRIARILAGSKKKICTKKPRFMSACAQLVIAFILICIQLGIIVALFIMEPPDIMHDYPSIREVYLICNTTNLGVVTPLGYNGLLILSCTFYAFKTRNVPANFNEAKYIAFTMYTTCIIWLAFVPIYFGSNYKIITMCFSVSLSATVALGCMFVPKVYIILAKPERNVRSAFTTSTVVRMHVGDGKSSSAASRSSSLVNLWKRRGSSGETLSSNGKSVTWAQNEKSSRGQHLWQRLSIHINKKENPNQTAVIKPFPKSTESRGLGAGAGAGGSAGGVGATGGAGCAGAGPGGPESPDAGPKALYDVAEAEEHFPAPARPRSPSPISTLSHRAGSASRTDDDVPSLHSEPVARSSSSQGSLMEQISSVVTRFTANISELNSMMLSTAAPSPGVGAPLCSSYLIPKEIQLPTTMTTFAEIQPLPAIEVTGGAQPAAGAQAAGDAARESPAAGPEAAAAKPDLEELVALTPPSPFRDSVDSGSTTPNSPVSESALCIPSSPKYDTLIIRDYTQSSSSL

Row | Emax (human mGluR5a receptor; [1]) | EC50 (human mGluR5a receptor; read-out: EC50) | melting point | pEC50 (human mGluR5a receptor; concentration in mol/L) | EC50 (human mGluR5a receptor; concentration in mol/L, read-out: pEC50 (converted)) | Emax (human mGluR5a receptor; [2]) | Structure (SMILES)
1 | 77% | 172 nM | 126.5 °C | – | – | – | CC1CN(C(=O)c2ccc(F)cc2)Cc2cc(COc3ccccc3)nn21 (racemic) [Compound 16]
2 | 81% | 673 nM | – | – | – | – | CC1Cn2nc(COc3ccccc3)cc2CN1C(=O)c1ccc(F)cc1 (racemic) [Compound 17]
3 | 67% | 2630 nM | 53.1 °C | – | – | – | O=C(c1ccc(F)cc1)N1CCn2nc(COc3ccccc3)cc2C1C(F)(F)F (racemic) [Compound 53]
4 | 25% | > 30200 nM | – | – | – | – | CC(Oc1ccccc1)c1cc2n(n1)CCN(C(=O)c1ccc(F)cc1)C2 (racemic) [Compound 54]
5 | 67% | 161 nM | 106 °C | 6.79 | – | – | O=C(c1ccc(F)cc1)N1CCn2nc(COc3ccccc3)cc2C1 [Compound 1]
6 | 76% | 201 nM | – | 6.70 | – | – | O=C(c1ccccc1F)N1CCn2nc(COc3ccccc3)cc2C1 [Compound 2]
7 | 66% | 169 nM | – | 6.77 | – | – | O=C(c1cccc(F)c1)N1CCn2nc(COc3ccccc3)cc2C1 [Compound 3]
8 | 70% | 414 nM | 100.6 °C | 6.38 | – | – | O=C(c1ccc(F)c(F)c1)N1CCn2nc(COc3ccccc3)cc2C1 [Compound 4]
9 | 50% | 79.6 nM | – | 7.10 | – | – | O=C(c1cc(F)cc(F)c1)N1CCn2nc(COc3ccccc3)cc2C1 [Compound 5]
10 | 74% | 292 nM | 95.8 °C | 6.53 | – | – | O=C(c1c(F)cccc1F)N1CCn2nc(COc3ccccc3)cc2C1 [Compound 6]
11 | 58% | 406 nM | – | 6.39 | – | – | O=C(c1cccc(F)c1F)N1CCn2nc(COc3ccccc3)cc2C1 [Compound 7]
12 | 78% | 208 nM | – | 6.68 | – | – | O=C(c1ccc(F)cc1F)N1CCn2nc(COc3ccccc3)cc2C1 [Compound 8]
13 | 72% | 257 nM | 159.2 °C | 6.59 | – | – | O=C(c1ccccc1)N1CCn2nc(COc3cccc(F)c3)cc2C1 [Compound 9]
14 | 69% | 269 nM | – | 6.57 | – | – | O=C(c1cccc(F)c1)N1CCn2nc(COc3cccc(F)c3)cc2C1 [Compound 10]
15 | 82% | 273 nM | 79.7 °C | 6.56 | – | – | O=C(c1ccc(F)cc1F)N1CCn2nc(COc3cccc(F)c3)cc2C1 [Compound 11]
16 | 69% | – | 126.9 °C | – | – | – | O=C(c1ccc(F)cc1)N1CCn2nc(COc3cccc(F)c3)cc2C1 [Compound 12]
17 | 75% | 587 nM | 112.7 °C | 6.23 | – | – | O=C(c1ccc(F)c(F)c1)N1CCn2nc(COc3cccc(F)c3)cc2C1 [Compound 13]
18 | 51% | > 10000 nM | 125.4 °C | <5.00 | – | – | Cc1cccnc1C(=O)N1CCn2nc(COc3cccc(F)c3)cc2C1 [Compound 14]
19 | 30% | > 30200 nM | 88.2 °C | <4.52 | – | – | Cc1ccc(C(=O)N2CCn3nc(COc4cccc(F)c4)cc3C2)cn1 [Compound 15]
20 | 66% | 256 nM | – | 6.59 | – | – | CC1(C)CN(C(=O)c2ccc(F)cc2)Cc2cc(COc3ccccc3)nn21 [Compound 18]
21 | 65% | 2950 nM | 114 °C | 5.53 | – | – | O=C(c1ncccc1F)N1CCn2nc(COc3cccc(F)c3)cc2C1 [Compound 20]

Row | Emax (human mGluR5a receptor; [1]) | EC50 (human mGluR5a receptor; read-out: EC50) | melting point | pEC50 (human mGluR5a receptor; concentration in mol/L) | EC50 (human mGluR5a receptor; concentration in mol/L, read-out: pEC50 (converted)) | Emax (human mGluR5a receptor; [2]) | Structure (SMILES)
22 | 77% | 1280 nM | > 300 °C | 5.89 | – | – | O=C(c1ncc(F)cc1F)N1CCn2nc(COc3cccc(F)c3)cc2C1 [Compound 21]
23 | 34% | 2910 nM | – | 5.53 | – | – | Cc1ncccc1C(=O)N1CCn2nc(COc3cccc(F)c3)cc2C1 [Compound 22]
24 | 58% | 1370 nM | > 300 °C | – | 1510 nM | – | O=C(c1cncc(F)c1)N1CCn2nc(COc3cccc(F)c3)cc2C1 [Compound 23]
25 | 58% | 3030 nM | 88 °C | 5.51 | – | – | Cc1cccc(C(=O)N2CCn3nc(COc4cccc(F)c4)cc3C2)n1 [Compound 24]
26 | 60% | 457 nM | – | 6.34 | – | – | N#Cc1cccc(C(=O)N2CCn3nc(COc4ccccc4)cc3C2)c1 [Compound 25]
27 | 52% | 83 nM | 109.8 °C | 7.08 | – | – | N#Cc1cc(F)cc(C(=O)N2CCn3nc(COc4ccccc4)cc3C2)c1 [Compound 26]
28 | 23% | > 30200 nM | 60.3 °C | <4.52 | – | – | N#Cc1ccc(C(=O)N2CCn3nc(COc4ccccc4)cc3C2)cc1F [Compound 27]
29 | 60% | 3020 nM | – | 5.52 | – | – | O=C(c1cnccn1)N1CCn2nc(COc3cccc(F)c3)cc2C1 [Compound 34]
30 | 12% | > 30200 nM | – | <4.52 | – | – | Cc1ncc(C(=O)N2CCn3nc(COc4cccc(F)c4)cc3C2)cn1 [Compound 37]
31 | 58% | 295 nM | – | 6.53 | – | – | O=C(c1ccc(F)cc1)N1CCn2nc(COc3ccc(F)cc3)cc2C1 [Compound 38]
32 | 58% | 708 nM | – | 6.15 | – | – | CC1CN(C(=O)c2ccc(F)cc2)Cc2cc(COc3ccccc3)nn21 (centres unmarked) [Compound 40]
33 | – | 162 nM | – | 6.79 | – | 74% | CC1CN(C(=O)c2ccc(F)cc2)Cc2cc(COc3ccccc3)nn21 (centres unmarked) [Compound 41]
34 | 69% | 138 nM | – | 6.86 | – | – | CC1CN(C(=O)c2cccc(F)c2)Cc2cc(COc3ccccc3)nn21 (centres unmarked) [Compound 42]
35 | 66% | 692 nM | – | 6.16 | – | – | CC1CN(C(=O)c2cc(F)cc(C#N)c2)Cc2cc(COc3ccccc3)nn21 (centres unmarked) [Compound 44]
36 | 52% | 1070 nM | – | 5.97 | – | – | CC1Cn2nc(COc3ccccc3)cc2CN1C(=O)c1cccc(F)c1 (centres unmarked) [Compound 47]
37 | – | 490 nM | – | 6.31 | – | 67% | CC1Cn2nc(COc3ccccc3)cc2CN1C(=O)c1cccc(F)c1 (centres unmarked) [Compound 48]
38 | 56% | 759 nM | – | 6.12 | – | – | CC1Cn2nc(COc3ccccc3)cc2CN1C(=O)c1cc(F)cc(C#N)c1 (centres unmarked) [Compound 51]
39 | – | > 10000 nM | – | <5.00 | – | 69% | CC1Cn2nc(COc3ccccc3)cc2CN1C(=O)c1cc(F)cc(C#N)c1 (centres unmarked) [Compound 52]
40 | 62% | 550 nM | – | 6.26 | – | – | O=C(c1ccc(F)cc1)N1CCn2nc(COc3ccccc3)c(F)c2C1 [Compound 56]
41 | 51% | 4570 nM | – | 5.34 | – | – | Nc1c(COc2ccccc2)nn2c1CN(C(=O)c1ccc(F)cc1)CC2 [Compound 58]
42 | 15% | 1820 nM | – | 5.74 | – | – | COc1c(COc2ccccc2)nn2c1CN(C(=O)c1ccc(F)cc1)CC2 [Compound 59]
